Tests used:
CNS myelin = details: previously shown; cited from earlier work
[1] = tested on: sciatic nerve (PNS myelin); experiment: In vivo imaging of sciatic nerve by multiphoton microscope; parameters: species or system wild type mouse; details: live anesthetized mouse, exposed sciatic nerve
Source text: In Vivo Staining Procedure: (1) Shave fur off region where sciatic nerve is located; (2) Cut soft tissue and muscle tissue covering sciatic nerve using surgical scissors; (3) Place animal under multiphoton microscope while anesthetized with isoflurane gas; and (4) Take live images of nerve.

[2] = Excitation and emission spectra (Cary Eclipse fluorescent spectrophotometer); type: physicochemical; details: 1 μM in DMSO
Procedure: FIG. 2 illustrates excitation and emission spectra of (E,E)-1,4-bis(4-aminostyryl)-2-dimethoxy-benzene (BDB) (1 μM in […]). Excitation spectra: emission at 510 nm (range 300-500 nm), bandwidth at 5 nm, scan at 120 nm/mm, integration time 0.5 sec. and maximal excitation wavelength at 426 nm. Emission spectra: excitation at 426 nm (range 430-650 nm), bandwidth at 5 nm, scan at 120 nm/min. integration time of 0.5 sec. and maximal emission wavelength at 506 nm.
Excitation and emission spectra of BDB (1 μM in DMSO) recorded using a Cary Eclipse fluorescent spectrophotometer (Variant Inc.; Palo Alto, Calif.) are shown in FIG. 2. Maximal excitation and emission peaks were found at 426 nm and 506 nm, respectively.

[3] = tested on: sciatic nerve (PNS myelin); experiment: Ex vivo staining of sciatic nerve after tail vein injection, microscope and FLI; type: in vivo, wild type mouse; details: post tail vein injection; tissue section under microscope
Source text: Ex Vivo Staining Procedure: (1) Injection of BDB via tail vein in wild type mouse; (2) Removal of sciatic nerve imbedded in muscle from right side; (3) Sectioning of muscle with nerve; (4) Observation of tissue under microscope to check staining; (5) Removal of left sciatic nerve from muscle; and (6) Observation of fluorescent in FLI machine.
An FLI machine picked up fluorescence from sciatic nerve placed in a tube with 4% paraformaldehyde (PFA) solution (FIG. 6).

[4] = tested on: sciatic nerve (PNS myelin); experiment: In vitro staining of sciatic nerve tissue sections, fluorescent microscopy; parameters: species or system wild type mouse; details: tissue section of sciatic nerve with surrounding muscle; confirmed by Black and Gold staining of adjacent section
Source text: In Vitro Staining Procedure: (1) Removal of wild type mouse sciatic nerve imbedded in muscle; (2) Sectioning of muscle with nerve with cryostat; (3) Chemical staining of tissue section of sciatic nerve with muscle tissue surrounded it; (4) Observation under fluorescent microscopy; (5) A Black and Gold staining of adjacent tissue section; and (6) Observation under regular microscope.
The staining of the sciatic nerve was confirmed by the Black and Gold staining of the adjacent tissue section (see FIG. 4).

[5] = Solubility of BDB in organic solvents; type: physicochemical

- maximal emission peak [2]: 506 nm
- maximal excitation peak [2]: 426 nm
SMILES: COc1cc(/C=C/c2ccc(N)cc2)c(OC)cc1/C=C/c1ccc(N)cc1 [BDB, (E,E)-1,4-bis(4′-aminostyryl)-2-dimethoxy-benzene]
- binding to myelin and retention in CNS white matter (CNS myelin): selectively binds to myelin and is retained in CNS white matter
- staining of intact myelin sheaths in peripheral nervous system tissue in vivo [1]: selectively stains intact myelin sheaths
- staining of sciatic nerve ex vivo [3]: successfully stained
- staining of sciatic nerve in vitro [4]: selectively stained the sciatic nerve
- solubility [5]: soluble in CH2Cl2, DMSO, and in most other organic solvents

— US9555130B2, “Compositions and methods for in vivo imaging of myelin in the peripheral nervous system” (Case Western Reserve University, priority 2010, dated 2017)
